Source: ChEMBL document CHEMBL4014279, “Synthesis of novel pyrazolo[3,4-b]quinolinyl acetamide analogs, their evaluation for antimicrobial and anticancer activities, validation by molecular modeling and CoMFA analysis” (Eur J Med Chem, 2017)
In brackets after ≈: the same amount, converted by molar mass.

Assays:
[1] = system: Micrococcus luteus; assay: Antibacterial activity against Micrococcus luteus MTCC 2470 after 24 hrs by well diffusion method; type: functional; settings: MTCC 2470, 24 h
[2] = system: HepG2; assay: Cytotoxicity against human HepG2 cells after 24 hrs by MTT assay; type: functional, cell-based; settings: HepG2, 24 h
[3] = system: HeLa; assay: Cytotoxicity against human HeLa cells after 24 hrs by MTT assay; type: functional, cell-based
[4] = system: Staphylococcus aureus; assay: Antibacterial activity against Staphylococcus aureus MLS16 MTCC 2940 after 24 hrs by well diffusion method; type: functional; settings: MLS16 MTCC 2940, 24 h
[5] = system: Bacillus subtilis; assay: Antibacterial activity against Bacillus subtilis MTCC 121 after 24 hrs by well diffusion method; type: functional; settings: MTCC 121, 24 h
[6] = system: COLO 205; assay: Cytotoxicity against human COLO205 cells after 24 hrs by MTT assay; type: functional, cell-based; settings: COLO 205, 24 h
[7] = system: Pseudomonas aeruginosa; assay: Antibacterial activity against Pseudomonas aeruginosa MTCC 2453 after 24 hrs by well diffusion method; type: functional; settings: MTCC 2453, 24 h
[8] = system: A549; assay: Cytotoxicity against human A549 cells after 24 hrs by MTT assay; type: functional, cell-based; settings: A549, 24 h
[9] = system: Escherichia coli; assay: Antibacterial activity against Escherichia coli MTCC 739 after 24 hrs by well diffusion method; type: functional; settings: MTCC 739, 24 h
[10] = system: Raoultella planticola; assay: Antibacterial activity against Klebsiella planticola MTCC 530 after 24 hrs by well diffusion method; type: functional; settings: MTCC 530, 24 h
[11] = system: Staphylococcus aureus; assay: Antibacterial activity against Staphylococcus aureus MTCC 96 after 24 hrs by well diffusion method; type: functional; settings: MTCC 96, 24 h

## Cc1nn(CC(=O)NC2CC2)c2nc3ccccc3c(C)c12
[1]
  MIC: 7.8 to 125 µg/mL (≈ 26.5 to 425 µM)
[2]
  IC50: 15.2 µM
[3]
  IC50: 16.7 µM
[4]
  MIC: 7.8 to 125 µg/mL (≈ 26.5 to 425 µM)
[5]
  MIC: 7.8 to 125 µg/mL (≈ 26.5 to 425 µM)
[6]
  IC50: 11.9 µM
[7]
  MIC: 7.8 to 125 µg/mL (≈ 26.5 to 425 µM)
[8]
  IC50: 14.3 µM
[9]
  MIC: 7.8 to 125 µg/mL (≈ 26.5 to 425 µM)
[10]
  MIC: 7.8 to 125 µg/mL (≈ 26.5 to 425 µM)
[11]
  MIC: 7.8 to 125 µg/mL (≈ 26.5 to 425 µM)

## CNC(=O)Cn1nc(C(F)(F)F)c2c(-c3ccccc3)c3ccccc3nc21
[1]
  MIC: 7.8 to 125 µg/mL (≈ 20.3 to 325 µM)
[2]
  IC50: 22.5 µM
[3]
  IC50: 23.5 µM
[4]
  MIC: 7.8 to 125 µg/mL (≈ 20.3 to 325 µM)
[5]
  MIC: 7.8 to 125 µg/mL (≈ 20.3 to 325 µM)
[6]
  IC50: 19.8 µM
[7]
  MIC: 7.8 to 125 µg/mL (≈ 20.3 to 325 µM)
[8]
  IC50: 21.4 µM
[9]
  MIC: 7.8 to 125 µg/mL (≈ 20.3 to 325 µM)
[10]
  MIC: 7.8 to 125 µg/mL (≈ 20.3 to 325 µM)
[11]
  MIC: 7.8 to 125 µg/mL (≈ 20.3 to 325 µM)

## Cc1nn(CC(=O)Nc2ccc([N+](=O)[O-])cc2)c2nc3ccccc3c(C)c12
[1]
  MIC: 7.8 to 125 µg/mL (≈ 20.8 to 333 µM)
[2]
  IC50: 17.2 µM
[3]
  IC50: 18.5 µM
[4]
  MIC: 7.8 to 125 µg/mL (≈ 20.8 to 333 µM)
[5]
  MIC: 7.8 to 125 µg/mL (≈ 20.8 to 333 µM)
[6]
  IC50: 20.1 µM
[7]
  MIC: 7.8 to 125 µg/mL (≈ 20.8 to 333 µM)
[8]
  IC50: 15.9 µM
[9]
  MIC: 7.8 to 125 µg/mL (≈ 20.8 to 333 µM)
[10]
  MIC: 7.8 to 125 µg/mL (≈ 20.8 to 333 µM)
[11]
  MIC: 7.8 to 125 µg/mL (≈ 20.8 to 333 µM)

## CCNC(=O)Cn1nc(C(F)(F)F)c2c(-c3ccccc3)c3ccccc3nc21
[1]
  MIC: 7.8 to 125 µg/mL (≈ 19.6 to 314 µM)
[2]
  IC50: 22.2 µM
[3]
  IC50: 26.5 µM
[4]
  MIC: 7.8 to 125 µg/mL (≈ 19.6 to 314 µM)
[5]
  MIC: 7.8 to 125 µg/mL (≈ 19.6 to 314 µM)
[6]
  IC50: 18.9 µM
[7]
  MIC: 7.8 to 125 µg/mL (≈ 19.6 to 314 µM)
[8]
  IC50: 29.5 µM
[9]
  MIC: 7.8 to 125 µg/mL (≈ 19.6 to 314 µM)
[10]
  MIC: 7.8 to 125 µg/mL (≈ 19.6 to 314 µM)
[11]
  MIC: 7.8 to 125 µg/mL (≈ 19.6 to 314 µM)

## CCCCCCNC(=O)Cn1nc(C(F)(F)F)c2c(C)c3ccccc3nc21
[1]
  MIC: 7.8 to 125 µg/mL (≈ 19.9 to 319 µM)
[2]
  IC50: 19.6 µM
[3]
  IC50: 21.7 µM
[4]
  MIC: 7.8 to 125 µg/mL (≈ 19.9 to 319 µM)
[5]
  MIC: 7.8 to 125 µg/mL (≈ 19.9 to 319 µM)
[6]
  IC50: 22.2 µM
[7]
  MIC: 7.8 to 125 µg/mL (≈ 19.9 to 319 µM)
[8]
  IC50: 20.5 µM
[9]
  MIC: 7.8 to 125 µg/mL (≈ 19.9 to 319 µM)
[10]
  MIC: 7.8 to 125 µg/mL (≈ 19.9 to 319 µM)
[11]
  MIC: 7.8 to 125 µg/mL (≈ 19.9 to 319 µM)

## O=C(Cn1nc(C(F)(F)F)c2c(-c3ccccc3)c3ccccc3nc21)NCc1ccco1
[1]
  MIC: 7.8 to 125 µg/mL (≈ 17.3 to 278 µM)
[2]
  IC50: 26.8 µM
[3]
  IC50: 27.2 µM
[4]
  MIC: 7.8 to 125 µg/mL (≈ 17.3 to 278 µM)
[5]
  MIC: 7.8 to 125 µg/mL (≈ 17.3 to 278 µM)
[6]
  IC50: 28.1 µM
[7]
  MIC: 7.8 to 125 µg/mL (≈ 17.3 to 278 µM)
[8]
  IC50: 22.4 µM
[9]
  MIC: 7.8 to 125 µg/mL (≈ 17.3 to 278 µM)
[10]
  MIC: 7.8 to 125 µg/mL (≈ 17.3 to 278 µM)
[11]
  MIC: 7.8 to 125 µg/mL (≈ 17.3 to 278 µM)

## CNC(=O)Cn1nc(C)c2c(C)c3ccccc3nc21
[1]
  MIC: 15.6 µg/mL (≈ 58.1 µM)
[2]
  IC50: 17.9 µM
[3]
  IC50: 18.1 µM
[4]
  MIC: > 125 µg/mL
[5]
  MIC: 62.5 µg/mL (≈ 233 µM)
[6]
  IC50: 16.3 µM
[7]
  MIC: > 125 µg/mL
[8]
  IC50: 20.2 µM
[9]
  MIC: > 125 µg/mL
[10]
  MIC: > 125 µg/mL
[11]
  MIC: > 125 µg/mL
